The values below are quoted from earlier work in patent US20150147306A1, “COMPOSITION FOR TREATING A CIRCADIAN RHYTHM DISORDER” (priority 2012, published 2015).

For the data set the following is noted: in humans.

In the case of `COc1ccc2[nH]cc(CCNC(C)=O)c2c1` [melatonin], the “half-life in the serum” value is 35 to 50 min.
